Source: US20190211317A1, “PEPTIDES AND NANOPARTICLES FOR INTRACELLULAR DELIVERY OF GENOME-EDITING MOLECULES” (Aadigen, LLC, priority 2016, published 2019)
Several values for one entry are separate records, joined by “and”; a condition that tells them apart may be missing. Identical values can stand only once.

Tests used:
[1] = tested on: endogenous hPD1 gene in JURKAT and K562 cells; assay: hPD1 gene editing in T cell lines (T7E1 assay); format: cell-based, human
Experimental: CAS9 protein was preloaded with purified sgRNA at a molar ratio of 1:1 and incubated for 10 min prior to forming complexes with peptides.
5×10^6 cells were washed twice with DPBS by centrifuging at 800 rpm for 5 minutes and resuspended in 100 ^l transfection buffer, and then transferred into the electroporation cuvette. An optimized program selected for both high transfection and high efficiency on T cells was used. After electroporation, cells were resuspended in 500 ^l pre-warmed AIM-V medium containing 10% FBS and incubated at 37° C. in 5% CO2. The transfection efficiency was evaluated after 48 hr by flow cytometry or T7E1 assay.
RNAiMAX delivery method was used as positive control. Cells were either resuspended in or overlaid with 100 μl of preformed complexes, incubated for 3-5 min, and then 300 μl of DMEM was added. […] The indel frequency in the hPD1 gene was quantified using the T7E1 assay.

[2] = tested on: hPD1 gene in human T cells; assay: hPD1 gene editing in primary human T cells (T7E1 assay); format: cell-based
Experimental: T cells were isolated from PBMCs (2 different donors) using anti-CD3/anti-CD28 antibodies bound to paramagnetic beads (Dynabeads ClinExVivo CD3/CD28, Invitrogen) at a ratio of 3:1 (beads:cells). The cells and beads were co-incubated for 2 hours at room temperature and CD3′ cell enrichment was performed using Dynal ClinExVIVO MPC magnet (Thermo Fisher). The anti-CD3/anti-CD28 paramagnetic beads were removed, washed and concentrated. Cells in the CD3′ fraction were resuspended in activation media at a concentration of 1×10^6 cells/ml with AIM-V medium (Thermo Fishers) supplemented with 10% fetal calf serum, 300 IU/ml IL2 and 50 ng/ml OKT3 (MuromonAB-CD3) for two days.
Cells were transfected by electroporation with CD-19 plasmid or gRNA/CAS9 (5 μg/10 μg) using a Nucleofector 2b (Lonza, Germany) with the Amaxa Human T cells Nucleofector Kit, VPA-1002 (Lonza, Germany). 5×10^6 cells were washed twice with DPBS by centrifuging at 800 rpm for 5 minutes and resuspended in 100 ^l transfection buffer, and then transferred into the electroporation cuvette. An optimized program selected for both high transfection and high efficiency on T cells was used. After electroporation, cells were resuspended in 500 ^l pre-warmed AIM-V medium containing 10% FBS and incubated at 37° C. in 5% CO2. The transfection efficiency was evaluated after 48 hr by flow cytometry or T7E1 assay.
As control, CAS9 loaded with gRNA targeting GFP was used.
Cells were returned to the incubator for 72 hours. CAS9-induced double-strand break followed by repair through non-homologous end joining (NHEJ) was analyzed by either the T7E1 assay or using the Genome Cleavage Detection kit (GCD Thermo Fisher) and quantified using Fragment Analyzer System. The indel frequency in the target gene was quantified using the T7E1 assay. The cultures were expanded and analyzed for viability and PD1 levels every 10 days. T cell expansion medium contained AIM V medium, supplemented with 5% heat-inactivated human AB Serum, 1% Gluta-Max, and 300 IU/mL IL-2.

[3] = tested on: hPD1 gene in human T cells; assay: Simultaneous delivery of CAR plasmid and CAS9/gRNA: hPD1 editing (T7E1); format: cell-based; conditions: for mean indel frequency: two donors
Experimental: Cells were incubated for 5 min, then 300 μl of serum free RPMI-1640 medium was added. After 30 min, 1.2 mL of full medium was added and serum level was adjusted to 10%. As control, CAS9 loaded with gRNA targeting GFP was used. For comparison with electroporation methods, cells were transfected with the anti-CD-19 CAR plasmid (5 μg) and gRNA/CAS9 (5 μg/10 μg) using Nucleofector 2b (Lonza, Germany) with the Amaxa Human T cells Nucleofector Kit, VPA-1002 (Lonza, Germany).
On day 5, the level of transduced and untransduced cells was analyzed, and cells were transferred to fresh T cell expansion medium. The cultures were analyzed for viability and anti-CD19 CAR expression by flow cytometry. The expression of the anti-CD19 CAR in the T cells was evaluated by flow cytometry using a Protein L assay. […] 7-AAD (Sigma) was used to determine viability. CAS9-induced double-strand break followed by repair through NHEJ system was analyzed by either the T7E1 assay or using the Genome Cleavage Detection kit (GCD Thermo Fisher) and quantified using Fragment Analyzer System. The indel frequency in the target gene was quantified using the T7E1 assay. The cultures were expanded and analyzed for viability, anti-CD19 expression and PD I level every 10 days. T cell expansion medium contained AIM V medium, supplemented with 5% heat-inactivated human AB Serum, 1% Gluta-Max, and 300 IU/mL IL-2.

JURKAT and K562 cells = assay: Toxicity of CPP/CAS9/gRNA complexes in T cell lines (MTT assay); format: cell-based, human; conditions: up to 100 nM, 24 h
Experimental: A total of 30,000 JURKAT or K562 cells seeded in 24-well plates the day prior to transfection were incubated with increasing concentrations of CPP/CAS9/gRNA complexed at 20:1 molar ratio (CPP to CAS9/gRNA) ranging from 1 nM to 200 nM for 30 min prior to addition of medium to reach a final 10% concentration of FCS. Cytotoxic response was measured 24 hours later by colorimetric MTT assay (Sigma, Germany). For MTT assay, cell culture medium was removed and replaced with PBS containing 2.5 mg/ml of MTT for 4 hours. Results correspond to the average of 3 independent experiments.

[4] = tested on: HPRT gene in mouse muscle myoblast cells (C2C12); assay: HPRT gene editing in C2C12 myoblasts (T7E1 assay); format: cell-based
Experimental: (§1) […] Delivery by RNAiMAX was included as a positive control.
(§2) CAS9-induced NHEJ was analyzed 72 hours after transfection by PCR (FIG. 26) and T7E1 assay (FIG. 27). The deletion (indel) frequencies in the HPRT gene were quantified using a T7E1 assay by quantifying the amount of uncut vs cut DNA using a Fragment Analyzer System. Data for on-target mutations induced by RGEN/gRNA are reported as an average of 3 separate experiments
(§3) The cell line was maintained in 5% CO2 at 37° C. and cell viability was assessed by the Trypan Blue exclusion test. To induce myogenic differentiation, at about 80% cell confluence the medium containing 10% fetal calf serum was substituted with medium containing 1% fetal calf serum. The cells were transfected at the undifferentiated stage or at day 7 after differentiation.

[5] = tested on: E-Catenin gene in mouse muscle myoblast cells (C2C12); assay: ü-Catenin gene disruption in C2C12 myoblasts (PCR gel); format: cell-based; conditions: undifferentiated and differentiated C2C12
Experimental: Cells were transfected with CAS9/gRNA (2.5 μM/5 μM) complexes associated with CPP (+) or not (−) at a molar ratio of 20:1 (peptide to complex) and compared to delivery by RNAiMAX for E-Catenin expression. ü-actin expression was included as a loading control.
as §1, §2, §3

[6] = tested on: U2OS, HEPG2, K562 cells and primary human fibroblasts; assay: CAS9 protein expression after CPP delivery of CAS9 mRNA (ELISA); format: cell-based; conditions: day 3; cell types not specified
Experimental: CPP/CAS9 mRNA complexes were formed by mixing the CAS9 mRNA (0.5 μg) with CPP at a 20:1 molar ratio of CPP:CAS9 mRNA and incubating for 30 min at 37° C. prior to cell transfection. Cells were transfected according to optimized protocols for either adherent or suspension cell lines.
Human primary fibroblasts were freshly obtained and grown in flasks pre-coated with a gelatin-based coating solution and incubated in Culture Complete Growth Medium for 3 days before expansion and treatment. U2OS cells were cultured in Dulbecco's Modified Eagle's Medium (DMEM), supplemented with 2 mM glutamine, 1% antibiotics (streptomycin 10,000 μg/mL, penicillin, 10,000 IU/mL) and 10% (w/v) foetal calf serum (FCS), at 37° C. in a humidified atmosphere containing 5% CO2. 35 mm dishes seeded with 150,000 cells the day prior to transfection were grown to 50-60% confluence and set up to be at about 70% confluences at the time of transfection. Before transfection, cells were washed with DMEM (2×) followed by PBS (1×). Cells were then overlaid with 0.2 ml of complex solution (16 μl CPP/Cargo complex in water+184 μl OPTiMEM without antibiotics), mixed gently, and incubated for 10 min at 37° C. 0.8 mL of fresh OPTiMEM or DMEM was then added and cells were incubated for 20 min at 37° C. 2 mL of complete OPTiMEM (high glucose) or DMEM containing 11.4% FCS was then added in order to reach a final FCS concentration of 10%, without removing the overlay of CPP/Cargo complexes. Cells were returned to the incubator (37° C., 5% CO2) and assayed at 72 hours post transfection.
K562 and HEpG2 cells were set up to be at about 70% confluence at the time of transfection. The cells were maintained in high glucose DMEM media with 10% serum. Before transfection, cells were harvested by centrifugation, then washed with DMEM (2×) followed by PBS (1×). Cells were then resuspended in 0.2 ml of complex solution (16 μl CPP/Cargo complex in water+184 μl OPTiMEM without antibiotics), mixed gently, and incubated for 10 min at 37° C. 0.8 mL of fresh OPTiMEM was then added and cells were incubated for 20 min at 37° C. 2 mL of complete OPTiMEM (high glucose) containing 11.4% FCS was then added in order to reach a final FCS concentration of 10%, without removing the overlay of CPP/Cargo complexes. Cells were returned to the incubator (37° C., 5% CO2) and assayed at 72 hours post transfection.
RNAiMAX lipid-based delivery (Invitrogen Thermo Fisher France) was used as a control and transfections were performed following the manufacturer's instructions. CAS9 expression level was analyzed at multiple time points over a period of 10 days as determined by ELISA on protein extracts using antibodies against CRISPR/Cas9 obtained from Diagenode (Diagenode cat. No. C15200223) and ABCAM (clone 7A9-ab191468).

[7] = tested on: U2OS and HEPG2 cell lines and primary human fibroblasts; assay: CAS9 protein expression after CPP delivery of CAS9-expressing plasmid (ELISA); format: cell-based; conditions: U2OS, HEPG2, primary human fibroblasts; day 6; plasmid 0.5 μg
Experimental: CPP/plasmid complexes were prepared by mixing 0.5 μg of a CAS9-expressing plasmid (Addgene MLM3639-Plasmid #42252) with CPP at a 20:1 molar ratio of CPP:cargo and incubating for 30 min at 37° C. prior to cell transfection. Cells were transfected according to the protocols for adherent and suspension cells described in Example 13a. Lipofectamine 2000 was used as lipid-based delivery control. CAS9 protein expression level was analyzed at multiple time points over a period of 10 days as determined by ELISA on protein extracts using antibodies against CRISPR/Cas9 obtained from Diagenode (Diagenode cat. No. C15200223) and ABCAM (clone 7A9-ab191468).

primary human T cells = assay: CAS9 protein expression in primary human T cells after CAS9 mRNA or plasmid delivery (ELISA); format: cell-based; conditions: day 3
Experimental: T cells were isolated from PBMCs using anti-CD3/anti-CD28 antibodies bound to paramagnetic beads (Dynabeads ClinExVivo CD3/CD28, Invitrogen) at a ratio of 3:1 (beads:cells). The cells and beads were co-incubated for 2 hours at room temperature and CD3^+ cell enrichment was performed using Dynal ClinExVIVO MPC magnet (Thermo Fisher). The anti-CD3/anti-CD28 paramagnetic beads were removed, washed and concentrated. Cells in the CD3^+ fraction were resuspended in activation media at a concentration of 1×10^6 cells/ml with AIM-V medium (Thermo Fishers) supplemented with 10% fetal calf serum, 300 IU/ml IL2 and 50 ng/ml OKT3 (MuromonAB-CD3) for two days.
CPP/CAS9 complexes were formed by mixing the CAS9 mRNA (0.5 μg) with CPP at a 20:1 molar ratio of CPP:CAS9 mRNA and incubating for 30 min at 37° C. prior to cell transfection. CPP/CAS9-expressing plasmid complexes were formed by mixing the CAS9-expressing plasmid (Addgene MLM3639-Plasmid #42252) (0.5 μg) with CPP at a 20:1 molar ratio of CPP:plasmid and incubating for 30 min at 37° C. prior to cell transfection.
Cells were transfected according to the protocol for suspension cells described in Example 13a. RNAiMAX and lipofectamine 2000 lipid-based delivery methods (Invitrogen Thermo Fisher France) were used as controls, and transfections were performed following the manufacturer's instructions. CAS9 protein expression level was analyzed at multiple time points over a period of 10 days as determine by ELISA on protein extracts using antibodies against CRISPR/Cas9 obtained from Diagenode (Diagenode cat. No. C15200223) and ABCAM (clone 7A9-ab191468).

[8] = Particle size, polydispersity and zeta potential with different cargoes (Zetasizer NANO ZS P); format: physicochemical; conditions: 20:1
Experimental: The CPP/CAS9-protein, CPP/CAS9-protein/sgRNA, CPP/CAS9-mRNA, CPP/CAS-mRNA/sgRNA particles were characterized; the mean size, polydispersity, and zeta potential were measured with a Zetasizer NANO ZS P apparatus (Malvern Ltd).
The mean size and the polydispersity of the CCP/cargo complexes were determined at 25° C. for 5 min per measurement and zeta potential was measured with a Zetasizer NANO ZS P apparatus (Malvern Ltd).

Swiss mice = conditions: CAS9 protein 5 μg/VEPEP-3a 20:1; single i.v.; 12-72 hr
Experimental: Free CAS9 protein in physiological buffer was injected as a negative control, and administration of LPS was used as a positive control for cytokine activation. […] Serum cytokine levels were measured using The Cytokine Mouse Magnetic 20-Plex Panel from Invritrogen (LMC 0006M).

[9] = Donor 1, CAS9/sgRNA 2.5 μg/5 μg
[10] = Donor 2, CAS9/sgRNA 2.5 μg/5 μg

Experimental for Primary T cells: The toxicity of CPP/CAS9/gRNA complexes was investigated in the two cell lines (JURKAT and K562) and in PBMC-isolated T cells. Cell viability was determined using either MTT assay or 7-AAD.
Data were normalized to untransfected cells and compared to T cells incubated with free CAS9/gRNA.

## N=C(N)NCCC[C@H](NC(=O)[C@H](CCCNC(=N)N)NC(=O)[C@H](CCCCN)NC(=O)[C@H](CCCNC(=N)N)NC(=O)[C@@H]1CCCN1C(=O)[C@H](Cc1c[nH]c2ccccc12)NC(=O)[C@H](CCC(=O)O)NC(=O)[C@H](CCCNC(=N)N)NC(=O)[C@H](Cc1ccccc1)NC(=O)[C@H](Cc1c[nH]c2ccccc12)NC(=O)[C@H](CCCNC(=N)N)NC(=O)[C@H](CCC(=O)O)NC(=O)[C@H](Cc1ccccc1)NC(=O)[C@H](Cc1c[nH]c2ccccc12)NC(=O)[C@H](CCCCN)NC(=O)CCN)C(=O)O [VEPEP-3a]
[1]; JURKAT, CAS9/sgRNA 2.5 μg/5 μg
  Mean indel Frequency ± s.e.m: 72 ± 5%
[1]; JURKAT, CAS9/sgRNA 5 μg/10 μg
  Mean indel Frequency ± s.e.m: 78% and 78 ± 7%
[1]; K562, CAS9/sgRNA 2.5 μg/5 μg
  Mean indel Frequency ± s.e.m: 71 ± 6%
[1]; K562, CAS9/sgRNA 5 μg/10 μg
  Mean indel Frequency ± s.e.m: 75% and 75 ± 6%
[2]; [9]
  Mean indel Frequency ± s.e.m: 62 ± 5%
[2]; Donor 1, CAS9/sgRNA 5 μg/10 μg
  Mean indel Frequency ± s.e.m: 65 ± 5%
[2]; [10]
  Mean indel Frequency ± s.e.m: 67 ± 8%
[2]; Donor 2, CAS9/sgRNA 5 μg/10 μg
  Mean indel Frequency ± s.e.m: 70 ± 5%
[2]; T cells from the two donors, 5 μg/10 μg CAS9/gRNA
  mean indel frequency of hPD1 gene: 66%
[3]; [9]
  Mean indel Frequency ± s.e.m: 51 ± 5%
[3]; Donor 1, CAS9/sgRNA 5 μg/10 μg
  Mean indel Frequency ± s.e.m: 57 ± 2%
[3]; [10]
  Mean indel Frequency ± s.e.m: 53 ± 5%
[3]; Donor 2, CAS9/sgRNA 5 μg/10 μg
  Mean indel Frequency ± s.e.m: 58 ± 8%
[3]; 2.5 μg/5 μg CAS9/gRNA
  mean indel frequency: approximately 50%
[3]; 5 μg/10 μg CAS9/gRNA
  mean indel frequency: ~57%
JURKAT and K562 cells
  toxicity: no toxicity
[4]; differentiated C2C12
  mean indel frequency: 73%
[4]; undifferentiated C2C12, 5 μg/10 μg CAS9/gRNA, 20:1
  mean indel frequency: 81%
[5]
  editing of ü-Catenin and HPRT genes: robust editing
[6]
  ELISA signal for CAS9 protein expression: little to no increase
[7]
  ELISA signal for CAS9 protein expression: little to no increase
Primary human T cells; CAS9-expressing plasmid 0.5 μg
  ELISA signal for CAS9 protein expression: little to no CAS9 expression
Primary human T cells; CAS9 mRNA 0.5 μg
  ELISA signal for CAS9 protein expression: little to no CAS9 expression
[8]; with CAS9-protein and CAS9-protein/gRNA complex
  formation of stable nanoparticles: able to form stable nanoparticles
[8]; with CAS9-protein and CAS9-protein/gRNA
  Mean diameter: about 60 nm
Primary T cells
  average viability: ≥ 80%
Swiss mice
  non-specific cytokine induction: little to no impact
